Laboratory results: ChEMBL document CHEMBL3400135, “Design, synthesis and biological evaluation of novel homocamptothecin analogues as potent antitumor agents” (Bioorg Med Chem, 2015)

Assays:
HT-29 [1] = assay: Antitumor activity against human HT-29 cells xenografted in mouse assessed as tumor volume at 3 mg/kg, iv dosed three times per week to the end of treatment measured on day 14 (reference value: 677 +/- 115 mm3); assay type: functional
HT-29 [2] = assay: Antitumor activity against human HT-29 cells xenografted in mouse assessed as tumor volume at 3 mg/kg, iv dosed three times per week to the end of treatment measured on day 3 (reference value: 168 +/- 46 mm3); assay type: functional
Mus musculus [3] = assay: Toxicity in human HT-29 cells xenografted mouse assessed as body weight level at 3 mg/kg, iv dosed three times per week to the end of treatment measured on day 21 (reference value: 21.2 +/- 1.6 g); assay type: organism-based; design: dose 3 mg/kg, route intravenous; details: in vivo
Mus musculus [4] = assay: Toxicity in human HT-29 cells xenografted mouse assessed as body weight level at 3 mg/kg, iv dosed three times per week to the end of treatment measured on day 10 (reference value: 22.4 +/- 1.3 g); assay type: organism-based; design: dose 3 mg/kg, route intravenous; details: in vivo
Mus musculus [5] = assay: Toxicity in human HT-29 cells xenografted mouse assessed as body weight level at 0.5 mg/kg, iv dosed three times per week to the end of treatment measured on day 17 (reference value: 22 +/- 1.7 g); assay type: organism-based; design: dose 0.5 mg/kg, route intravenous; details: in vivo
Mus musculus [6] = assay: Toxicity in human HT-29 cells xenografted mouse assessed as lethal toxicity at 3 mg/kg, iv dosed three times per week to the end of treatment; assay type: organism-based; design: dose 3 mg/kg, route intravenous; details: in vivo
HCT-116 = assay: Potency index, ratio of IC50 for SN38 to IC50 for compound against human HCT116 cells after 72 hrs by sulforhodamine B assay; assay type: functional
Mus musculus [7] = assay: Toxicity in human HT-29 cells xenografted mouse assessed as body weight level at 0.5 mg/kg, iv dosed three times per week to the end of treatment measured on day 21 (reference value: 21.2 +/- 1.6 g); assay type: organism-based; design: dose 0.5 mg/kg, route intravenous; details: in vivo
Mus musculus [8] = assay: Toxicity in human HT-29 cells xenografted mouse assessed as body weight level at 0.5 mg/kg, iv dosed three times per week to the end of treatment measured on day 10 (reference value: 22.4 +/- 1.3 g); assay type: organism-based; design: dose 0.5 mg/kg, route intravenous; details: in vivo
HT-29 [9] = assay: Antitumor activity against human HT-29 cells xenografted in mouse assessed as tumor volume at 3 mg/kg, iv dosed three times per week to the end of treatment measured on day 7 (reference value: 229 +/- 57 mm3); assay type: functional
Mus musculus [10] = assay: Toxicity in human HT-29 cells xenografted mouse assessed as body weight level at 3 mg/kg, iv dosed three times per week to the end of treatment measured on day 7 (reference value: 21.7 +/- 1 g); assay type: organism-based; design: dose 3 mg/kg, route intravenous; details: in vivo
HT-29 [11] = assay: Antitumor activity against human HT-29 cells xenografted in mouse assessed as tumor volume at 3 mg/kg, iv dosed three times per week to the end of treatment measured on day 10 (reference value: 386 +/- 77 mm3); assay type: functional
Mus musculus [12] = assay: Toxicity in human HT-29 cells xenografted mouse assessed as body weight level at 3 mg/kg, iv dosed three times per week to the end of treatment measured on day 3 (reference value: 20.7 +/- 1.2 g); assay type: organism-based; design: dose 3 mg/kg, route intravenous; details: in vivo
HT-29 [13] = assay: Antitumor activity against human HT-29 cells xenografted in mouse assessed as tumor volume at 0.5 mg/kg, iv dosed three times per week to the end of treatment measured on day 3 (reference value: 168 +/- 46 mm3); assay type: functional
HT-29 [14] = assay: Antitumor activity against human HT-29 cells xenografted in mouse assessed as relative tumor increment rate at 3 mg/kg, iv dosed three times per week to the end of treatment relative to untreated control; assay type: functional
Mus musculus [15] = assay: Toxicity in human HT-29 cells xenografted mouse assessed as body weight level at 3 mg/kg, iv dosed three times per week to the end of treatment measured on day 14 (reference value: 22.7 +/- 1.5 g); assay type: organism-based; design: dose 3 mg/kg, route intravenous; details: in vivo
HT-29 [16] = assay: Antitumor activity against human HT-29 cells xenografted in mouse assessed as tumor volume at 3 mg/kg, iv dosed three times per week to the end of treatment measured on day 17 (reference value: 807 +/- 197 mm3); assay type: functional
Mus musculus [17] = assay: Toxicity in human HT-29 cells xenografted mouse assessed as body weight level at 0.5 mg/kg, iv dosed three times per week to the end of treatment measured on day 3 (reference value: 20.7 +/- 1.2 g); assay type: organism-based; design: dose 0.5 mg/kg, route intravenous; details: in vivo
Mus musculus [18] = assay: Toxicity in human HT-29 cells xenografted mouse assessed as induction of anaphylactic reaction at 0.5 mg/kg, iv dosed three times per week to the end of treatment; assay type: organism-based; design: dose 0.5 mg/kg, route intravenous; details: in vivo
[19] = Solubility in water; assay type: physicochemical
[20] = Stability in pH 7.4 PBS buffer assessed as formation of carboxylate forms at 1 uM incubated at 37 degC by HPLC method; assay type: physicochemical; details: pH 7.4, 1 µM
HT-29 [21] = assay: Antitumor activity against human HT-29 cells xenografted in mouse assessed as tumor volume at 0.5 mg/kg, iv dosed three times per week to the end of treatment measured on day 10 (reference value: 386 +/- 77 mm3); assay type: functional
HT-29 [22] = assay: Antitumor activity against human HT-29 cells xenografted in mouse assessed as tumor volume at 0.5 mg/kg, iv dosed three times per week to the end of treatment measured on day 21 (reference value: 1272+/- 273 mm3); assay type: functional
Mus musculus [23] = assay: Toxicity in human HT-29 cells xenografted mouse assessed as induction of anaphylactic reaction at 3 mg/kg, iv dosed three times per week to the end of treatment; assay type: organism-based; design: dose 3 mg/kg, route intravenous; details: in vivo
HT-29 [24] = assay: Antitumor activity against human HT-29 cells xenografted in mouse assessed as tumor volume at 0.5 mg/kg, iv dosed three times per week to the end of treatment measured on day 14 (reference value: 677 +/- 115 mm3); assay type: functional
Mus musculus [25] = assay: Toxicity in human HT-29 cells xenografted mouse assessed as lethal toxicity at 0.5 mg/kg, iv dosed three times per week to the end of treatment; assay type: organism-based; design: dose 0.5 mg/kg, route intravenous; details: in vivo
Mus musculus [26] = assay: Toxicity in human HT-29 cells xenografted mouse assessed as body weight level at 0.5 mg/kg, iv dosed three times per week to the end of treatment measured on day 14 (reference value: 22.7 +/- 1.5 g); assay type: organism-based; design: dose 0.5 mg/kg, route intravenous; details: in vivo
HT-29 [27] = assay: Antitumor activity against human HT-29 cells xenografted in mouse assessed as relative tumor increment rate at 0.5 mg/kg, iv dosed three times per week to the end of treatment relative to untreated control; assay type: functional
Mus musculus [28] = assay: Toxicity in human HT-29 cells xenografted mouse assessed as body weight change at 3 mg/kg, iv dosed three times per week to the end of treatment (reference value: 12.7%); assay type: organism-based; design: dose 3 mg/kg, route intravenous; details: in vivo
Mus musculus [29] = assay: Toxicity in human HT-29 cells xenografted mouse assessed as induction of overt toxic symptoms at 3 mg/kg, iv dosed three times per week to the end of treatment; assay type: organism-based; design: dose 3 mg/kg, route intravenous; details: in vivo
Mus musculus [30] = assay: Toxicity in human HT-29 cells xenografted mouse assessed as induction of overt toxic symptoms at 0.5 mg/kg, iv dosed three times per week to the end of treatment; assay type: organism-based; design: dose 0.5 mg/kg, route intravenous; details: in vivo
[31] = Stability in human plasma assessed as lactone moieties level at 1 uM incubated at 37 degC after 3 hrs by HPLC method; assay type: ADME, cell-free; details: read-out: Stability
[32] = Cytotoxicity against human HCT116 cells after 72 hrs by sulforhodamine B assay; assay type: functional, cell-based, HCT-116; details: hct-116
Mus musculus [33] = assay: Toxicity in human HT-29 cells xenografted mouse assessed as body weight level at 3 mg/kg, iv dosed three times per week to the end of treatment measured on day 17 (reference value: 22 +/- 1.7 g); assay type: organism-based; design: dose 3 mg/kg, route intravenous; details: in vivo
Mus musculus [34] = assay: Toxicity in human HT-29 cells xenografted mouse assessed as body weight level at 0.5 mg/kg, iv dosed three times per week to the end of treatment measured on day 7 (reference value: 21.7 +/- 1 g); assay type: organism-based; design: dose 0.5 mg/kg, route intravenous; details: in vivo
HT-29 [35] = assay: Cytotoxicity against human HT-29 cells after 72 hrs by sulforhodamine B assay; assay type: functional, cell-based; details: ht-29
HT-29 [36] = assay: Antitumor activity against human HT-29 cells xenografted in mouse assessed as tumor volume at 3 mg/kg, iv dosed three times per week to the end of treatment measured on day 21 (reference value: 1272+/- 273 mm3); assay type: functional
HT-29 [37] = assay: Antitumor activity against human HT-29 cells xenografted in mouse assessed as tumor volume at 0.5 mg/kg, iv dosed three times per week to the end of treatment measured on day 7 (reference value: 229 +/- 57 mm3); assay type: functional
HT-29 [38] = assay: Antitumor activity against human HT-29 cells xenografted in mouse assessed as tumor volume at 0.5 mg/kg, iv dosed three times per week to the end of treatment measured on day 17 (reference value: 807 +/- 197 mm3); assay type: functional

CC[C@]1(O)c2cc3n(c(=O)c2COC(=O)[C@H]1OC)Cc1c-3nc2cc3c(cc2c1-c1ccncc1)OCO3.Cl
Activity (HT-29 [1]): 51 mm3 | Activity (HT-29 [2]): 124 mm3 | Activity (Mus musculus [3]): 18.7 g | Activity (Mus musculus [4]): 16.8 g | Activity (Mus musculus [5]): 22.2 g | Activity (Mus musculus [6]): Non-toxic | Ratio IC50 (HCT-116): 20 | Activity (Mus musculus [7]): 21.3 g | Activity (Mus musculus [8]): 22 g | Activity (HT-29 [9]): 93 mm3 | Activity (Mus musculus [10]): 18.6 g | Activity (HT-29 [11]): 52 mm3 | Activity (Mus musculus [12]): 19.8 g | Activity (HT-29 [13]): 156 mm3 | T/C (HT-29 [14]): 0% | Activity (Mus musculus [15]): 18.1 g | Activity (HT-29 [16]): 15 mm3 | Activity (Mus musculus [17]): 20.5 g | Activity (Mus musculus [18]): Non-toxic | solubility [19]: 1200 µg/mL | Stability [20]: Stable | Activity (HT-29 [21]): 262 mm3 | Activity (HT-29 [22]): 550 mm3 | Activity (Mus musculus [23]): Non-toxic | Activity (HT-29 [24]): 327 mm3 | Activity (Mus musculus [25]): Non-toxic | Activity (Mus musculus [26]): 22.5 g | T/C (HT-29 [27]): 42.84% | Activity (Mus musculus [28]): -2.6% | Activity (Mus musculus [29]): Non-toxic | Activity (Mus musculus [30]): Non-toxic | remaining at 3 h, 1 µM [31]: 55% | IC50 [32]: 0.628 nM | Activity (Mus musculus [33]): 18.4 g | Activity (Mus musculus [34]): 21.4 g | IC50 (HT-29 [35]): 3.41 nM | Activity (HT-29 [36]): 0 mm3 | Activity (HT-29 [37]): 187 mm3 | Activity (HT-29 [38]): 380 mm3
